How the values were obtained:
Assay in all cases: radiometric filter-binding kinase assay
DYRK1A (rat) = settings: ATP 100 µM, accession and sequence are those of the human protein
PRKAA1 or PRKAA2 (rat) = settings: ATP 100 µM, accession and sequence are those of the human protein
[1] = test system: RPS6KB1 (human), P23443 [T412E]; settings: ATP 100 µM
CSNK1A1 (rat) = settings: ATP 100 µM, accession and sequence are those of the human protein
RPS6KA1 (human) = RPS6KA1 (human) (UniProt Q15418); settings: ATP 100 µM
GSK3B (human) = GSK3B (human) (UniProt P49841); settings: ATP 100 µM
MAPK12 (human) = MAPK12 (human) (UniProt P53778); settings: ATP 100 µM
Sequence of MAPK12 (human) (P53778 whole entry, looked up): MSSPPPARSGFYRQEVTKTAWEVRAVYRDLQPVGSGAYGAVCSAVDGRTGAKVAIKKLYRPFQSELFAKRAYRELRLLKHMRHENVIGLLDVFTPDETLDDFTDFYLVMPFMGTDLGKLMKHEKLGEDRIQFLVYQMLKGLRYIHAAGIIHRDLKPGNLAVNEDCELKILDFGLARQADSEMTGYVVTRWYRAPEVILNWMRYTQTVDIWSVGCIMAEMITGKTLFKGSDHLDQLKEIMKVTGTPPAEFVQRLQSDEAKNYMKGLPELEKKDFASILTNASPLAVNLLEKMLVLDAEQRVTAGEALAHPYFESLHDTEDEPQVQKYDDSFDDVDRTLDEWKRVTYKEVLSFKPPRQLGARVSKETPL

ROCK2 (rat) = settings: ATP 100 µM, accession and sequence are those of the human protein
CDK2 CCNA2 (human) = CDK2 CCNA2 (human) (UniProt P24941+P20248); settings: ATP 100 µM
PDPK1 (human) = PDPK1 (human) (UniProt O15530); settings: ATP 100 µM
Sequence of PDPK1 (human) (O15530 whole entry, looked up): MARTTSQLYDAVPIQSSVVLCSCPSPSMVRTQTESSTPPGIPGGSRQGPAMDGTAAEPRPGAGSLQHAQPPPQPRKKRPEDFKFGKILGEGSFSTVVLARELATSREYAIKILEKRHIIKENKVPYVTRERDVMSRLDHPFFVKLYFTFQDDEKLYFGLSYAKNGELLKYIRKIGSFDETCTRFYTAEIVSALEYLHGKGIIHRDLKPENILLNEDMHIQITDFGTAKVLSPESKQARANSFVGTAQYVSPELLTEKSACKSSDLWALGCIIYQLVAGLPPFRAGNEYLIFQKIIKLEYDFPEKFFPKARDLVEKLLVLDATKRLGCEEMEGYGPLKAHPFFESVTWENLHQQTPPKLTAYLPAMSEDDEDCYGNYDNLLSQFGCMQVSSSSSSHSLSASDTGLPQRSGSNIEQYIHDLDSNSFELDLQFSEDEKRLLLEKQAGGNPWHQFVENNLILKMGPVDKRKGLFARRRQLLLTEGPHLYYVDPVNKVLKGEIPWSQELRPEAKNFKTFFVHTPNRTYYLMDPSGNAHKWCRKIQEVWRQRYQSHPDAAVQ

[2] = test system: SGK1 (human), O00141 [S422D]; settings: ATP 100 µM
Sequence of SGK1 (human), O00141 [S422D] (O00141 whole entry S422D, looked up): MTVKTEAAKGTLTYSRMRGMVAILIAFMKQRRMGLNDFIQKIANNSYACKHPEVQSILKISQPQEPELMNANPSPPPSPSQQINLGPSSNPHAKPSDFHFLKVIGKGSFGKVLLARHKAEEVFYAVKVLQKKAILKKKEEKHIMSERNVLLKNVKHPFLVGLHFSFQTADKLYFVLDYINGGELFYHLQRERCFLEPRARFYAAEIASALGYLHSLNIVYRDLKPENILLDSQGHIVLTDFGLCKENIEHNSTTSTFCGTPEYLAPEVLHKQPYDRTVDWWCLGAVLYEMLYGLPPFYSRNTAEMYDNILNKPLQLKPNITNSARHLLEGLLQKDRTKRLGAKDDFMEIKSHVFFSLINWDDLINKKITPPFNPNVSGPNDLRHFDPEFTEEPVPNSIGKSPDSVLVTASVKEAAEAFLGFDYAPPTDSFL

MAPK14 (human) = MAPK14 (human) (UniProt Q16539); settings: ATP 100 µM
Sequence of MAPK14 (human) (Q16539 whole entry, looked up): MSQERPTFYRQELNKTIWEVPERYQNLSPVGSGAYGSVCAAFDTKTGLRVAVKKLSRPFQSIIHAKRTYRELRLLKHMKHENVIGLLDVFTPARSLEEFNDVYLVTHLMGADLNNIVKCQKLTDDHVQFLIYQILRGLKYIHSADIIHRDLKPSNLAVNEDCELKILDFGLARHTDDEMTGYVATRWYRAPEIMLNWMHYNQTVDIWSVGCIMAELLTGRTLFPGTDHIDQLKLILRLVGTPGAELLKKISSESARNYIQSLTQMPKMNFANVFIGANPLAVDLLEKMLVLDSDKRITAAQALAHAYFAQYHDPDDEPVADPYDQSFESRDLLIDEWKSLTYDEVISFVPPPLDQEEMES

MAPKAPK2 (human) = MAPKAPK2 (human) (UniProt P49137); settings: ATP 100 µM
Sequence of MAPKAPK2 (human) (P49137 whole entry, looked up): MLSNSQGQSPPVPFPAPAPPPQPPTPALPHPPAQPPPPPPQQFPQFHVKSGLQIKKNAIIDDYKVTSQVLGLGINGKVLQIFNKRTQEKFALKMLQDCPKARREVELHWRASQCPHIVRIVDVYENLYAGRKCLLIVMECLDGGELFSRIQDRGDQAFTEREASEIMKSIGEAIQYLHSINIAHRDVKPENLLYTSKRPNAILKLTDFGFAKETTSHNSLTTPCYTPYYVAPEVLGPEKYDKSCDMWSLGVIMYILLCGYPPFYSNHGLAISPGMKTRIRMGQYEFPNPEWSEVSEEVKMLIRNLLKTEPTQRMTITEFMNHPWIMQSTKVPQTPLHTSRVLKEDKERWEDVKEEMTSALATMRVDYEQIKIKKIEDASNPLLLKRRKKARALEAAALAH

AKT1 (human) = AKT1 (human) (UniProt P31749); settings: ATP 100 µM
Sequence of AKT1 (human) (P31749 whole entry, looked up): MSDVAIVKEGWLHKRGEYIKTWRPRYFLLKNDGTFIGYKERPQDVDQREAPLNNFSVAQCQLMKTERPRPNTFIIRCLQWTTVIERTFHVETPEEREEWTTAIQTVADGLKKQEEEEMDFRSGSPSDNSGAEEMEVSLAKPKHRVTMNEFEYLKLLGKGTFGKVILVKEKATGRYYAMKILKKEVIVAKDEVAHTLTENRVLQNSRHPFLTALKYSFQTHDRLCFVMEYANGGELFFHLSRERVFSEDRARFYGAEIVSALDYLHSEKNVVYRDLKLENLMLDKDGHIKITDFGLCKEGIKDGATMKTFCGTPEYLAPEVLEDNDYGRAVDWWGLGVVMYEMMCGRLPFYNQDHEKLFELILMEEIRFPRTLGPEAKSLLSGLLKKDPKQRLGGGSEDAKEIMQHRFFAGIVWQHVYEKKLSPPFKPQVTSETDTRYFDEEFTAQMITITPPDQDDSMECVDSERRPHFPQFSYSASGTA

MAPK13 (human) = MAPK13 (human) (UniProt O15264); settings: ATP 100 µM
CSK (human) = CSK (human) (UniProt P41240); settings: ATP 100 µM
Sequence of CSK (human) (P41240 whole entry, looked up): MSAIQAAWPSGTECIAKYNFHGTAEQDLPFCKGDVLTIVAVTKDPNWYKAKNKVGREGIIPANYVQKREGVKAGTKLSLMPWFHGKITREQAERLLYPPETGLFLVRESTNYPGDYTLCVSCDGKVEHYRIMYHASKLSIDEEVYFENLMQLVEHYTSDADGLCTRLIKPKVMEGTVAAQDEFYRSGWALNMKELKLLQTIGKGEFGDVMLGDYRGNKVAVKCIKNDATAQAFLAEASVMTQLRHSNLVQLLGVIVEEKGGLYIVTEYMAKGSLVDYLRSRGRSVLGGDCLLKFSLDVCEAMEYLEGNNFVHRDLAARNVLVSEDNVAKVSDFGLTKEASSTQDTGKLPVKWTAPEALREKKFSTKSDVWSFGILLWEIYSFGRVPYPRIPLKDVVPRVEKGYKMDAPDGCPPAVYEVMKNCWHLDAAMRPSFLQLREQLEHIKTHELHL

MAP2K1 (rabbit) = settings: ATP 100 µM, accession and sequence are those of the human protein
MAPK1 (mouse) = settings: ATP 100 µM, accession and sequence are those of the human protein
[3] = target: CSNK2A1 or CSNK2A2 (human) (UniProt P19784+P68400); settings: ATP 100 µM
RPS6KA5 KD1 KD2 (human) = RPS6KA5 KD1 KD2 (human) (UniProt O75582); settings: ATP 100 µM
Sequence of RPS6KA5 KD1 KD2 (human) (O75582 whole entry, looked up): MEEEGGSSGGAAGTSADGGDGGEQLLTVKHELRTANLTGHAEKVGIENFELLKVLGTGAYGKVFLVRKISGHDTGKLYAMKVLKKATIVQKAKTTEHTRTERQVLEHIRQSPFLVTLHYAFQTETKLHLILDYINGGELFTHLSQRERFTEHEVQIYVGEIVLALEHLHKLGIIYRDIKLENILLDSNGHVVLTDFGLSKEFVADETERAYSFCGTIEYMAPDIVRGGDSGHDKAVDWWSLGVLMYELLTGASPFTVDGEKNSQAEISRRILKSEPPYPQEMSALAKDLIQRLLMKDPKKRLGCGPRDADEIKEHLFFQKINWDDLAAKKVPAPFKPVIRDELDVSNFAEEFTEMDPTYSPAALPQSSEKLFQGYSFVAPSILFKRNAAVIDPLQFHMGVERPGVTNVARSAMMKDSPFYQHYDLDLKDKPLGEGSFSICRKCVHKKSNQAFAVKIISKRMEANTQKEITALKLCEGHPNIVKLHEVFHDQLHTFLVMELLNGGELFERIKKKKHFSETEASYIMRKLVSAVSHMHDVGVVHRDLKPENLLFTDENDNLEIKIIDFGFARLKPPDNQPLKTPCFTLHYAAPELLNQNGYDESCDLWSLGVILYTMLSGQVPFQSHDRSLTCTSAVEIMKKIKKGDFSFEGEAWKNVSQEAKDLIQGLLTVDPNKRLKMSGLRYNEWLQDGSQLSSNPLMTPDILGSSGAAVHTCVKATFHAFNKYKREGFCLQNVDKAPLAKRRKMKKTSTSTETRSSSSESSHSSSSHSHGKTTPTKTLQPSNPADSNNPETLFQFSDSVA

PHKG1 or PHKG2 (rabbit) = settings: ATP 100 µM, accession and sequence are those of the human protein
PRKACA or PRKACB (cow) = settings: accession and sequence are those of the human protein
MAPKAPK5 (human) = MAPKAPK5 (human) (UniProt Q8IW41); settings: ATP 100 µM
RPS6KA1 (rat) = settings: ATP 100 µM, accession and sequence are those of the human protein
CHEK1 (human) = CHEK1 (human) (UniProt O14757); settings: ATP 100 µM
MAPK8 (human) = MAPK8 (human) (UniProt P45983); settings: ATP 100 µM
Sequence of MAPK8 (human) (P45983 whole entry, looked up): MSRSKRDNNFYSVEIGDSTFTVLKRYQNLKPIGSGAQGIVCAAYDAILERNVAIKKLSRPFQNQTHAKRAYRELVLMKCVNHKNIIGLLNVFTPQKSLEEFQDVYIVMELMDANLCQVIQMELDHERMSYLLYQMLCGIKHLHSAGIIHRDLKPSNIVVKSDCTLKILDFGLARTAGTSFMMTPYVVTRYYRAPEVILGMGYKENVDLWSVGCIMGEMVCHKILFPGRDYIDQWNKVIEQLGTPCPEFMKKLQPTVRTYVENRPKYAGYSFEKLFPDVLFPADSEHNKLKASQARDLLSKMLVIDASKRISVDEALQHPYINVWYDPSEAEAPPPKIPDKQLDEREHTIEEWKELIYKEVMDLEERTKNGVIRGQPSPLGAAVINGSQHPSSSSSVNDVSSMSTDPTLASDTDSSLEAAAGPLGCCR

MAPK11 (human) = MAPK11 (human) (UniProt Q15759); settings: ATP 100 µM
LCK (human) = LCK (human) (UniProt P06239); settings: ATP 100 µM
PRKCA (human) = PRKCA (human) (UniProt P17252); settings: ATP 100 µM
PRKG1 (human) = PRKG1 (human) (UniProt Q13976); settings: compound 10.0 µM; ATP 100 µM
MYLK (human) = MYLK (human) (UniProt Q15746); settings: compound 20.0 µM; ATP 100 µM
MYLK2 (human) = MYLK2 (human) (UniProt Q9H1R3); settings: compound 20.0 µM; ATP 100 µM

Sequence of RPS6KB1 (human), P23443 [T412E] (P23443 whole entry T412E, looked up): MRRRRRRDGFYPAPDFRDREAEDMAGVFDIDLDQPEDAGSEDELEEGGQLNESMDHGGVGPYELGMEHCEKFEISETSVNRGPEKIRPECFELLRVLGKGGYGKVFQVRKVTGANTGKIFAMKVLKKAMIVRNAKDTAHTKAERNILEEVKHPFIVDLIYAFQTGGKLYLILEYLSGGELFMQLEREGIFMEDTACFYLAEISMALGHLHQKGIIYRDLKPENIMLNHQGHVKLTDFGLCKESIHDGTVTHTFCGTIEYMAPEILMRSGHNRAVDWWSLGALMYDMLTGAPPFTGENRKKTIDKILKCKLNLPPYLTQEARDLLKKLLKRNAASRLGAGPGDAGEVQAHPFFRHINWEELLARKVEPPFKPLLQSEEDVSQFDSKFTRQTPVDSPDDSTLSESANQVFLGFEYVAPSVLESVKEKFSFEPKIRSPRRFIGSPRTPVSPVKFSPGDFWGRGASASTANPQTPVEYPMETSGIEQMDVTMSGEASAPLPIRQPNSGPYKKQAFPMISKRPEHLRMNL

CC(C)[C@H](CO)Nc1nc(Nc2cccc(Cl)c2)c2ncn(C(C)C)c2n1
IC50 (DYRK1A (rat)): 300 nM
residual activity (DYRK1A (rat); compound 10.0 µM): 6%
residual activity (PRKAA1 or PRKAA2 (rat); compound 10.0 µM): 59%
residual activity ([1]; compound 10.0 µM): 79%
residual activity (CSNK1A1 (rat); compound 10.0 µM): 75%
IC50 (RPS6KA1 (human)): 1490 nM
residual activity (GSK3B (human); compound 10.0 µM): 84%
residual activity (MAPK12 (human); compound 10.0 µM): 105%
residual activity (ROCK2 (rat); compound 10.0 µM): 57%
residual activity (CDK2 CCNA2 (human); compound 10.0 µM): 2%
residual activity (PDPK1 (human); compound 10.0 µM): 103%
residual activity ([2]; compound 10.0 µM): 91%
residual activity (MAPK14 (human); compound 10.0 µM): 101%
residual activity (MAPKAPK2 (human); compound 10.0 µM): 97%
residual activity (AKT1 (human); compound 10.0 µM): 88%
residual activity (MAPK13 (human); compound 10.0 µM): 98%
residual activity (CSK (human); compound 10.0 µM): 20%
residual activity (MAP2K1 (rabbit); compound 10.0 µM): 80%
residual activity (MAPK1 (mouse); compound 10.0 µM): 26%
residual activity ([3]; compound 10.0 µM): 95%
residual activity (RPS6KA5 KD1 KD2 (human); compound 10.0 µM): 88%
residual activity (PHKG1 or PHKG2 (rabbit); compound 10.0 µM): 36%
residual activity (PRKACA or PRKACB (cow); compound 10.0 µM): 82%
residual activity (MAPKAPK5 (human); compound 10.0 µM): 76%
residual activity (RPS6KA1 (rat); compound 10.0 µM): 15%
residual activity (CHEK1 (human); compound 10.0 µM): 78%
residual activity (MAPK8 (human); compound 10.0 µM): 84%
residual activity (MAPK11 (human); compound 10.0 µM): 117%
residual activity (LCK (human); compound 10.0 µM): 22%

COC(=O)[C@@]1(OC)C[C@@H]2O[C@]1(C)n1c3ccccc3c3c4c(c5c6ccccc6n2c5c31)C(=O)N(C)C4
residual activity (DYRK1A (rat); compound 10.0 µM): 112%
residual activity (PRKAA1 or PRKAA2 (rat); compound 10.0 µM): 90%
residual activity ([1]; compound 10.0 µM): 90%
residual activity (CSNK1A1 (rat); compound 10.0 µM): 83%
residual activity (GSK3B (human); compound 10.0 µM): 52%
residual activity (MAPK12 (human); compound 10.0 µM): 103%
residual activity (ROCK2 (rat); compound 10.0 µM): 97%
residual activity (CDK2 CCNA2 (human); compound 10.0 µM): 94%
residual activity (PDPK1 (human); compound 10.0 µM): 114%
residual activity ([2]; compound 10.0 µM): 72%
residual activity (MAPK14 (human); compound 10.0 µM): 102%
residual activity (MAPKAPK2 (human); compound 10.0 µM): 71%
residual activity (AKT1 (human); compound 10.0 µM): 83%
residual activity (MAPK13 (human); compound 10.0 µM): 105%
residual activity (CSK (human); compound 10.0 µM): 93%
residual activity (MAP2K1 (rabbit); compound 10.0 µM): 99%
residual activity (MAPK1 (mouse); compound 10.0 µM): 106%
residual activity ([3]; compound 10.0 µM): 98%
residual activity (RPS6KA5 KD1 KD2 (human); compound 10.0 µM): 74%
residual activity (PHKG1 or PHKG2 (rabbit); compound 10.0 µM): 99%
residual activity (PRKACA or PRKACB (cow); compound 10.0 µM): 102%
residual activity (MAPKAPK5 (human); compound 10.0 µM): 83%
residual activity (RPS6KA1 (rat); compound 10.0 µM): 105%
residual activity (PRKCA (human); compound 10.0 µM): 102%
residual activity (CHEK1 (human); compound 10.0 µM): 93%
residual activity (MAPK8 (human); compound 10.0 µM): 99%
residual activity (MAPK11 (human); compound 10.0 µM): 100%
residual activity (LCK (human); compound 10.0 µM): 94%
residual activity (PRKG1 (human)): 109%

O=S(=O)(c1cccc2c(I)cccc12)N1CCCNCC1
residual activity (MYLK (human)): 10%
residual activity (DYRK1A (rat); compound 20.0 µM): 66%
residual activity (PRKAA1 or PRKAA2 (rat); compound 20.0 µM): 82%
residual activity (MYLK2 (human)): 63%
residual activity ([1]; compound 20.0 µM): 74%
residual activity (CSNK1A1 (rat); compound 20.0 µM): 106%
residual activity (GSK3B (human); compound 20.0 µM): 107%
residual activity (MAPK12 (human); compound 20.0 µM): 95%
residual activity (ROCK2 (rat); compound 20.0 µM): 74%
residual activity (CDK2 CCNA2 (human); compound 20.0 µM): 73%
residual activity (PDPK1 (human); compound 20.0 µM): 107%
residual activity ([2]; compound 20.0 µM): 101%
residual activity (MAPK14 (human); compound 20.0 µM): 100%
residual activity (MAPKAPK2 (human); compound 20.0 µM): 93%
residual activity (AKT1 (human); compound 20.0 µM): 88%
residual activity (MAPK13 (human); compound 20.0 µM): 75%
residual activity (CSK (human); compound 20.0 µM): 94%
residual activity (MAP2K1 (rabbit); compound 20.0 µM): 102%
residual activity (MAPK1 (mouse); compound 20.0 µM): 85%
residual activity ([3]; compound 20.0 µM): 83%
residual activity (RPS6KA5 KD1 KD2 (human); compound 20.0 µM): 59%
residual activity (PHKG1 or PHKG2 (rabbit); compound 20.0 µM): 85%
residual activity (PRKACA or PRKACB (cow); compound 20.0 µM): 85%
residual activity (MAPKAPK5 (human); compound 20.0 µM): 78%
residual activity (RPS6KA1 (rat); compound 20.0 µM): 99%
residual activity (PRKCA (human); compound 20.0 µM): 85%
residual activity (CHEK1 (human); compound 20.0 µM): 94%
residual activity (MAPK8 (human); compound 20.0 µM): 97%
residual activity (MAPK11 (human); compound 20.0 µM): 89%
residual activity (LCK (human); compound 20.0 µM): 87%
